Assay [1] addresses T1, type 1 human 5α-reductase (Homo sapiens, UniProt P18405).
T1 sequence (P18405 1-259): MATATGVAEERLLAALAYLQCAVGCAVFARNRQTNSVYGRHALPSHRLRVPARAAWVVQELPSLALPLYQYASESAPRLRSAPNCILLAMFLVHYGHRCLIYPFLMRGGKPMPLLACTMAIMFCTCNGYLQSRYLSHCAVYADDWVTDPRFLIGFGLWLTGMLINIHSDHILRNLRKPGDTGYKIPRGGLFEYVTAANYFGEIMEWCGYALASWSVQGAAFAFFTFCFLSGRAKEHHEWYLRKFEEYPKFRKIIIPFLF
Description: Cell-free enzymatic assay of 5α-reductase (testosterone to DHT), type 1. Particulars: for inhibition at 100 µM: read-out: percent inhibition of 5α-reductase activity, cell-free assay, Type 1, 100 μM compound; for percent inhibition of 5α-reductase activity, cell-free assay, Type 1: 100 μM compound.

Assay [2] addresses T2, type 2 human 5α-reductase (Homo sapiens, UniProt P31213).
T2 sequence (P31213 1-254): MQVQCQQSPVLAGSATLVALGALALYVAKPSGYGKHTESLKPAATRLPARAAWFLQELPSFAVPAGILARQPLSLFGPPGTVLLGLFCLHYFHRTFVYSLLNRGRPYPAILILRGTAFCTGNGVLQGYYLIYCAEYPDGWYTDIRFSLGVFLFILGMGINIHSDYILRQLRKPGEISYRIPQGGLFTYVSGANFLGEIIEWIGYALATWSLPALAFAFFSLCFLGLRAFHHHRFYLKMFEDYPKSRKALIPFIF
Description: Cell-free enzymatic assay of 5α-reductase (testosterone to DHT), type 2. Set-up: expressed in transfected cells; host or cells: rat 1A cells infected with pMV7 retrovirus and selected with G418; microsomes for the cell-free assay. To be noted: for inhibition at 100 µM: read-out: percent inhibition of 5α-reductase activity, cell-free assay, Type 2, 100 μM compound; for pIC50: microsomes from rat 1A cells expressing human type 2 5α-reductase, read-out: Cell-free assay IC50, 5α-reductase Type 2. It counts as biochemical.

The next assay relates to 5α-reductase. Description: Cell-free 5α-reductase assay, isozyme not given. It counts as biochemical, human. To be noted: isozyme not stated.
Assay [3] has as its system hamster flank organ. Description: Testosterone-stimulated growth of the pigmented macules of hamster flank organs.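 For all read-outs here: prepubertal Syrian golden hamsters castrated at 4 weeks, ethanol vehicle on one flank organ, macule long and short axes gauged by caliper 1 day after final dose.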 It counts as in vivo, Syrian golden hamsters. Particulars: 0.5 μg testosterone + 1 mg compound topically daily, 18 days; for Pigmented macule area: castrated male hamsters, mean±SEM.
Assay [4] concerns the target T1, type 1 human 5α-reductase. Briefly: Whole-cell assay of 5α-reductase, type 1. It counts as cell-based. Set-up: expressed in transfected cells; host or cells: rat 1A cells infected with pMV7 retrovirus and selected with G418; microsomes for the cell-free assay, intact cells for the whole-cell assay. To be noted: for pIC50: rat 1A cells expressing human type 1 5α-reductase.

Assay [5] relates to hamster flank organ. Description: DHT-stimulated growth of the pigmented macules of hamster flank organs. It counts as in vivo, Syrian golden hamsters. How it is done: Prepubertal male Syrian golden hamsters, castrated at 4 weeks of age, were obtained from Harlan Sprague-Dawley Co. (Madison, Wis.). Bilateral orchiectomy was performed under anesthesia. The hamsters were housed individually in plastic cages and had free access to Purina rodent chow and water, and were maintained on a 12-h light/12-h dark cycle. Hamsters were used 1-2 weeks after castration and were divided into groups of 4-6 or 9-11 animals. Hair on the lower back of each animal was shaved weekly with an electric hair clipper to expose the flank organs. A treatment solution (5 μl with ethanol as vehicle) was applied topically to the flank organ once a day using a Pipetteman and a polypropylene disposable tip. The treatment solution contained either (a) ethanol alone, (b) an androgen (testosterone or DHT), (c) a test compound, or (d) a combination of an androgen and a test compound. For each hamster, one flank organ was treated while the other organ was not treated. The surface of the flank organ was wiped with an alcohol pad to remove residual compound before each treatment. At the end of each experiment (18 days), animals were killed by CO2 asphyxiation or an intraperitoneal injection of […]. Flank organs from both the treated and untreated sides were examined 1 day after the last treatment by the methods described below. The body weight of each animal was recorded before and after treatment. Experiments were repeated at least twice to assure reproducibility. The “Guide for the care and use of laboratory animals” (NIH publication no. 85-28, revised 1988) and the regulations of the U.S. Department of Agriculture were followed throughout the experiments.
In this study, the growth of the flank organ was determined by measuring the length of the long axis and the short axis of the pigmented spot (pigmented macule) with a caliper with a digital display (Digimatic; Mitutoyo Corporation, Japan). The surface area (in millimeters squared) of the spot was calculated as the product of the long axis and the short axis (Gomez and Frost 1975). The areas of the pigmented spots after treatment with ethanol alone or with test compound (in ethanol) alone were less than 10% of the areas of the pigmented spots after treatment with testosterone alone. These values were deducted from the experimental values and are compared in Tables 8-10. For each experiment, the means and standard error of the means (SEM) of the areas of the untreated and treated macules were computed separately for each treatment group. Within each experiment, an overall F-test (one way ANOVA) was used to test the null hypothesis that the mean sizes of the treated macules were the same in all groups, and Dunnett's multiple range test was used to examine differences between the treatment groups (i.e., green tea catechin+androgen, fatty acid+androgen, EGC derivative+androgen, or fatty acid derivative+androgen) and the control group (androgen treatment only). The Mann-Whitney test was used to examine differences between DHT-treated and the DHT and EGCG-treated groups. P-values <0.05 were taken as indicating statistical significance in all tests (Hochberg and Tamhane 1987).
Each group comprised four to six castrated male hamsters. At the end of the treatment period, the areas of the pigmented macules were determined and are presented as means±SEM in Table 8.
Each group comprised four to six castrated male hamsters. At the end of the treatment period, the areas of the pigmented macules were determined and are expressed as means±SEM as shown in Table 10.

The target of assay [6] is T2, type 2 human 5α-reductase. Briefly: Whole-cell assay of 5α-reductase, type 2. More on the design: expressed in transfected cells; host or cells: rat 1A cells infected with pMV7 retrovirus and selected with G418; intact cells for the whole-cell assay. Format: cell-based. Particulars: for pIC50: rat 1A cells expressing human type 2 5α-reductase.

pIC50: −log10 of the molar value. Several values for one entry are separate records, joined by “and”; a condition that tells them apart may be missing. Equal entries are not always repeated. Where only a bound is given, the exact number is not on record here.

As usually defined, the inhibition is the relative decrease from the control value, in per cent. On to `O=c1c(O)cccc2cc(O)c(O)c(O)c12` [Purpurogallin], for which the inhibition at 100 µM in assay [1] is 81%; in assay [2], 31%.
What is called pIC50 is the IC50 on a negative log10 scale, so that one unit is a factor of ten. Take `O=C1c2ccccc2C(=O)c2ccccc21` [Anthraquinone]: the pIC50 with 5α-reductase was < 4.00.
For `CCCC/C=C\CCCCCCCC(=O)O` [myristoleic acid], in the assay on hamster flank organ [3], the “Inhibition (percent decrease in macule area vs androgen-treated macules)” value is on record as 73% and the Pigmented macule area turned out to be 4.63 ± 0.66 mm^2.
Turning to `O=c1cc(-c2ccccc2)oc2cc(O)cc(O)c12` [Chrysin], the inhibition at 100 µM was found to be 2% in assay [1] and 1% in assay [2].
In the same order, the values of `O=c1ccc2c(-c3ccccc3S(=O)(=O)O)c3ccc(O)c(O)c3oc-2c1O` [Pyrogallol red, pryrogallolsulfonephthalein] are 97% and 27%.
Consider “cis or traps-9,11 or 10,12 octadecadienoic acid [Conjugated Octadecadienonic Acid]”, for which the “percent inhibition of 5α-reductase activity, cell-free assay, Type 1” value in assay [1] was found to be 99%. For the same compound, the pIC50 in assay [1] (read-out: Cell-free assay IC50, 5α-reductase Type 1, microsomes from rat 1A cells expressing human type 1 5α-reductase) is 5.00; in assay [2] it was 4.52. Moreover, the “percent inhibition of 5α-reductase activity, cell-free assay, Type 2” value in assay [2] (100 μM compound) is 81%.
For the compound `O=C1C=CC(=C(c2ccc(O)c(O)c2)c2ccccc2S(=O)(=O)O)C=C1O` (mixture of isomers) [Pyrocatechol violet, pyrocatecholsulfonephthalein], in assay [2], the pIC50 was 4.00.
Consider `CCCCC/C=C\C/C=C\C/C=C\CCCCC(=O)O` [Gamma-Linolenic Acid, Gamma-Linolenic Acid C18:3 CIS 6.9,12], for which, in the assay with hamster flank organ [3], the “Inhibition (percent decrease in macule area vs androgen-treated macules)” value was 82% and the Pigmented macule area is listed as 3.15 ± 0.42 mm^2.
For `CC(Cc1ccc(O)c(O)c1)C(C)Cc1ccc(O)c(O)c1` (stereo not shown) [Nordihydroguaiaretic acid], the pIC50 in assay [4] and in assay [1] was 4.72 in each case. The inhibition at 100 µM in assay [2] was determined as 80%.
With `O=C1c2ccccc2C(=O)c2c1cc(S(=O)(=O)[O-])c(O)c2O.[Na+]` [Alizarin red S], the “percent inhibition of 5α-reductase activity, whole-cell assay, Type 1” value in assay [4] (100 μM compound) is listed as 22%.
With `COc1cc(CCC(=O)CC(=O)CCc2ccc(O)cc2)ccc1O` [Demethoxytetrahydrocurcumin, demethoxytetrahydrocurcumin], in assay [1], the “percent inhibition of 5α-reductase activity, cell-free assay, Type 1” value worked out at 23%.
For `O=C1c2ccccc2C(=O)c2c(O)c(O)cc(O)c21` [Purpurin], the figures for the inhibition at 100 µM in assay [1] and in assay [2] were 95% and 20%, respectively.
As for `O=c1oc2c(O)c(O)cc3c(=O)oc4c(O)c(O)cc1c4c23` [Ellagic acid], the pIC50 in the assay with 5α-reductase is < 4.00.
With `O=c1ccc2cc(O)c(O)cc2o1` [Esculetin, 6,7-dihydroxycoumarin], in the assay on 5α-reductase, the pIC50 is < 4.00. The inhibition at 100 µM was 7% in assay [1] and 13% in assay [2].
With `C[C@]12CCC(=O)C[C@@H]1CC[C@@H]1[C@@H]2CC[C@]2(C)[C@@H](O)CC[C@@H]12` [DHT, 5α-dihydrotestosterone, reference compound], the “Pigmented macule area, androgen alone (control)” value in the assay with hamster flank organ [5] (0.5 μg DHT alone topically daily, 18 days, mean±SEM) was 20.80 ± 1.10 mm^2 and 13.67 ± 0.96 mm^2. Also, in the assay on hamster flank organ [5] (0.5 μg DHT per flank organ per day), the “stimulation of flank organ growth relative to the maximum stimulation” value is reported as 50-70%.
For `CCCC/C=C\CCCCCCCC(=O)O[C@@H]1Cc2c(O)cc(O)cc2O[C@@H]1c1cc(O)c(O)c(O)c1` [EGC-myristoleate, EGC-3-myristoleate], the pIC50 in assay [4] and in assay [6] was > 4.82 in each case. Besides, the “Inhibition (percent decrease in macule area vs androgen-treated macules)” value with hamster flank organ [3] was 71%; with hamster flank organ [3] (listed as EGC-3 ester of MA) it was “about 70%”. Further, in the assay with hamster flank organ [3], the Pigmented macule area worked out at 5.00 ± 0.42 mm^2.
Take `COc1cc(/C=C/CO)ccc1O` [Coniferol, coniferyl alcohol]: the inhibition at 100 µM in assay [1] stood at 10%. Also, in assay [2], the pIC50 is 4.00 and the inhibition at 100 µM amounted to 49%.
With `CCCCC/C=C\C/C=C\CCCCCCCC(=O)O` [Linoleic Acid, Linoleic Acid C18:2 CIS 9,12], the inhibition at 100 µM in assay [4] (read-out: percent inhibition of 5α-reductase activity, whole-cell assay, Type 1, 100 μM compound) was determined as 78%; in assay [6] (read-out: percent inhibition of 5α-reductase activity, whole-cell assay, Type 2, 100 μM compound), 77%; in assay [1] it was 99%; in assay [2] it was 85%.
As for `CCCCC/C=C\C/C=C\C/C=C\CCCCC(=O)O[C@@H]1Cc2c(O)cc(O)cc2O[C@@H]1c1cc(O)c(O)c(O)c1` [EGC-γ-linoleneate acid, EGC-γ-linoleneate], the pIC50 in assay [4] and in assay [6] was > 4.82 each time. For the same compound, the “Inhibition (percent decrease in macule area vs androgen-treated macules)” value is recorded as 68% in the assay with hamster flank organ [3] and “about 70%” in the assay on hamster flank organ [3] (listed as EGC-3 ester of γ-LA). The Pigmented macule area with hamster flank organ [3] amounted to 5.50 ± 0.56 mm^2.
In the case of `O=c1c(O)c(-c2ccc(O)cc2O)oc2cc(O)cc(O)c12` [Morin], the inhibition at 100 µM in assay [1] came out at 6%; in assay [2], 33%.
In the case of `COc1cc(/C=C/C(=O)CC(=O)/C=C/c2ccc(O)c(OC)c2)ccc1O` [Curcumin], the “Inhibition (percent decrease in macule area vs androgen-treated macules)” value worked out at 87% with hamster flank organ [3] and 31% in the assay with hamster flank organ [5] (0.5 μg DHT + 1 mg compound topically daily, 18 days). Besides, the Pigmented macule area is reported as 2.40 ± 0.65 mm^2 with hamster flank organ [3] and 9.50 ± 0.21 mm^2 in the assay with hamster flank organ [5] (0.5 μg DHT + 1 mg compound topically daily, 18 days, mean±SEM).
As to `C=CCc1ccc(O)c(OC)c1` [Eugenol], in assay [2], the negative logarithm of the IC50 (pIC50) is 4.00.
Take `COc1cc2ccc(=O)oc2c(O)c1O` [Fraxetin, 7,8-dihydroxy-6-methoxycoumarin]: the negative-log IC50 (pIC50) in the assay with 5α-reductase is < 4.00. The inhibition at 100 µM came out at 2% in assay [1] and 8% in assay [2].
In the case of `C[C@@H]1O[C@@H](OC[C@H]2O[C@@H](Oc3c(-c4ccc(O)c(O)c4)oc4cc(O)cc(O)c4c3=O)[C@H](O)[C@@H](O)[C@@H]2O)[C@H](O)[C@H](O)[C@H]1O` [Rutin], the inhibition at 100 µM in assay [1] was 4%; in assay [2], 0%.

The values above are taken from patent US6696484B2, “Method and compositions for regulation of 5-alpha reductase activity” (University of Chicago Office of Technology and Intellectual …, priority 1997, dated 2004).
